Converted amounts (≈) assume the structure as drawn. Like-named read-outs stand apart in the source and are kept apart here.
Tests used:
A. baumannii = assay: MIC by broth microdilution, A. baumannii (WT); format: cell-based, Acinetobacter baumannii; conditions: for MIC: Acinetobacter baumannii
S. aureus = assay: MIC by broth microdilution, S. aureus; format: cell-based, Staphylococcus aureus; conditions: cation adjusted Mueller Hinton broth, 35° C. 20 hours
[1] = system: H. influenzae (strain ATCC 49247); assay: MIC by broth microdilution, H. influenzae; format: cell-based, Hemophilus influenzae; conditions: for MIC: Haemophilus influenzae
A. baumannii RpoB L542F = assay: microbe, parasite or virus in culture; format: cell-based, Acinetobacter baumannii; conditions: Acinetobacter baumannii, RPOBL542F, 20 h
[2] = system: A. baumannii RpoB H535Q/S521T; assay: microbe, parasite or virus in culture; format: cell-based, Acinetobacter baumannii; conditions: Acinetobacter baumannii, RPOBH535Q/S521T
A. baumannii RpoB H535Q = assay: microbe, parasite or virus in culture; format: cell-based, Acinetobacter baumannii; conditions: for MIC: Acinetobacter baumannii, RPOBH535Q, 20 h; for A. baumannii MIC, RpoB H535Q: Table 4, RPMI + FCS
[3] = system: Enterococcus faecium (strain NCTC 12204); assay: MIC by broth microdilution, E. faecium; format: cell-based; conditions: for MIC: Enterococcus faecium
A. baumannii RpoB H535L = assay: microbe, parasite or virus in culture; format: cell-based, Acinetobacter baumannii; conditions: for MIC: Acinetobacter baumannii, RPOBH535L, 20 h; for A. baumannii MIC, RpoB H535L: Table 4, RPMI + FCS
[4] = system: Staphylococcus epidermidis (strain ATCC 12228); assay: MIC by broth microdilution, S. epidermidis; format: cell-based; conditions: for MIC: Staphylococcus epidermidis
A. baumannii RpoB H535C = assay: microbe, parasite or virus in culture; format: cell-based, Acinetobacter baumannii; conditions: for MIC: Acinetobacter baumannii, RPOBH535C, 20 h; for A. baumannii MIC, RpoB H535C: Table 4, RPMI + FCS
[5] = system: Enterococcus faecalis (strain ATCC 51575); assay: MIC by broth microdilution, E. faecalis; format: cell-based; conditions: for MIC: Enterococcus faecalis
[6] = system: S. pneumoniae (strain ATCC 49619); assay: MIC by broth microdilution, S. pneumoniae; format: cell-based, Streptococcus pneumoniae; conditions: strain ATCC 49619, cation adjusted Mueller Hinton broth + 5% laked horse blood
[7] = system: S. pyogenes (strain IHMA 1117021); assay: MIC by broth microdilution, S. pyogenes; format: cell-based, Streptococcus pyogenes; conditions: strain IHMA 1117021, cation adjusted Mueller Hinton broth + 5% laked horse blood
[8] = system: M. smegmatis (strain ATCC 700084); assay: MIC, M. smegmatis (BacTiter-Glo); format: cell-based, Mycobacterium smegmatis; conditions: strain ATCC 700084, Middlebrook 7H9 + ADC, 90% growth inhibition, 20 hours
[9] = system: M. abscessus (strain ATCC 19977); assay: MIC by broth microdilution, M. abscessus; format: cell-based, Mycobacterium abscessus; conditions: strain ATCC 19977, Middlebrook 7H9 broth + ADC
[10] = system: M. tuberculosis (H37Rv strain ATCC 27294); format: cell-based, Mycobacterium tuberculosis
[11] = RPMI medium supplemented with 10% FCS, 35° C. 20 hours
[12] = read-out: MIC, RpoB mutation L542F, Table 5 part 3 c2, 1st L542F isolate, RPMI + 10% FCS
[13] = read-out: MIC, RpoB mutation L542F, Table 5 part 3 c3, 2nd L542F isolate, RPMI + 10% FCS
[14] = read-out: MIC, RpoB mutation H535Q/S521T, Table 5 part 1 c5, 1st H535Q/S521T isolate, RPMI + 10% FCS
[15] = read-out: MIC, RpoB mutation H535Q/S521T, Table 5 part 1 c6, 2nd H535Q/S521T isolate, RPMI + 10% FCS
[16] = read-out: A. baumannii MIC, RpoB H535Q, Table 4, RPMI + FCS
[17] = read-out: MIC, RpoB mutation H535Q, Table 5 part 1 c2, 1st H535Q isolate, RPMI + 10% FCS
[18] = read-out: MIC, RpoB mutation H535Q, Table 5 part 1 c3, 2nd H535Q isolate, RPMI + 10% FCS
[19] = read-out: MIC, RpoB mutation H535Q, Table 5 part 1 c4, 3rd H535Q isolate, RPMI + 10% FCS
[20] = read-out: A. baumannii MIC, RpoB H535L, Table 4, RPMI + FCS
[21] = read-out: MIC, RpoB mutation H535L, Table 5 part 2 c5, 1st H535L isolate, RPMI + 10% FCS
[22] = read-out: MIC, RpoB mutation H535L, Table 5 part 2 c6, 2nd H535L isolate, RPMI + 10% FCS
[23] = read-out: MIC, RpoB mutation H535L, Table 5 part 3 c1, 3rd H535L isolate, RPMI + 10% FCS
[24] = read-out: MIC, RpoB mutation H535L, Table 5 part 3 c6, 4th H535L isolate, RPMI + 10% FCS
[25] = read-out: MIC, RpoB mutation H535L, Table 5 part 3 c7, 5th H535L isolate, RPMI + 10% FCS
[26] = read-out: A. baumannii MIC, RpoB H535C, Table 4, RPMI + FCS
[27] = read-out: MIC, RpoB mutation H535C, Table 5 part 2 c1, 1st H535C isolate, RPMI + 10% FCS
[28] = read-out: MIC, RpoB mutation H535C, Table 5 part 2 c2, 2nd H535C isolate, RPMI + 10% FCS
[29] = read-out: MIC, RpoB mutation H535C, Table 5 part 2 c3, 3rd H535C isolate, RPMI + 10% FCS
[30] = read-out: MIC, RpoB mutation H535C, Table 5 part 2 c4, 4th H535C isolate, RPMI + 10% FCS
[31] = strain ATCC 49247, Hemophilus test medium broth
[32] = strain NCTC 12204, cation adjusted Mueller Hinton broth
[33] = strain ATCC 12228, cation adjusted Mueller Hinton broth
[34] = strain ATCC 51575, cation adjusted Mueller Hinton broth

SMILES	MIC A. baumannii (A. baumannii; [11])	MIC S. aureus (S. aureus)	MIC (A. baumannii RpoB L542F; [12])	MIC (A. baumannii RpoB L542F; [13])	MIC [2, 14]	MIC [2, 15]	MIC (A. baumannii RpoB H535Q; [16])	MIC (A. baumannii RpoB H535Q; [17])	MIC (A. baumannii RpoB H535Q; [18])	MIC (A. baumannii RpoB H535Q; [19])	MIC (A. baumannii RpoB H535L; [20])	MIC (A. baumannii RpoB H535L; [21])	MIC (A. baumannii RpoB H535L; [22])	MIC (A. baumannii RpoB H535L; [23])	MIC (A. baumannii RpoB H535L; [24])	MIC (A. baumannii RpoB H535L; [25])	MIC (A. baumannii RpoB H535C; [26])	MIC (A. baumannii RpoB H535C; [27])	MIC (A. baumannii RpoB H535C; [28])	MIC (A. baumannii RpoB H535C; [29])	also measured
CO[C@H]1/C=C/O[C@@]2(C)Oc3c(C)c(O)c4c(c3C2=O)C2=NC3(CC5CCC(C3)N5C)NC2=C(NC(=O)/C(C)=C\C=C\[C@H](C)[C@H](O)[C@@H](C)[C@@H](O)[C@@H](C)[C@H](OC(C)=O)[C@@H]1C)C4=O (single isomer, unassigned) [Compound 13B]	< 2 ng/mL	0.016 µg/mL (≈ 0.0193 µM)	0.002 µg/mL	0.125 µg/mL	0.5 µg/mL	1 µg/mL	≤ 0.002 µg/mL	≤ 0.002 µg/mL	4 µg/mL	2 µg/mL	0.03 µg/mL	0.004 µg/mL	≤ 0.002 µg/mL	0.25 µg/mL	0.03 µg/mL	0.03 µg/mL	≤ 0.002 µg/mL	≤ 0.002 µg/mL	0.002 µg/mL	0.004 µg/mL	MIC (A. baumannii; 20 h, read-out: A. baumannii MIC, WT, Table 4, RPMI + FCS): ≤ 2 ng/mL; MIC ([1]; ATCC49247, read-out: MIC H. influenzae): 0.125 µg/mL (≈ 0.15 µM); MIC ([3]; NCTC12204, read-out: MIC E. faecium): 0.125 µg/mL (≈ 0.15 µM); MIC ([4]; ATCC12228, read-out: MIC S. epidermidis): < 2 ng/mL; MIC (A. baumannii RpoB H535C; [30]): 0.016 µg/mL; MIC ([5]; ATCC51575, read-out: MIC E. faecalis): 0.5 µg/mL (≈ 0.602 µM)
CCCN1C2CCC1CC1(C2)N=C2C(=C3NC(=O)/C(C)=C\C=C\[C@H](C)[C@H](O)[C@@H](C)[C@@H](O)[C@@H](C)[C@H](OC(C)=O)[C@H](C)[C@@H](OC)/C=C/O[C@@]4(C)Oc5c(C)c(O)c(c2c5C4=O)C3=O)N1 (single isomer, unassigned) [Compound 20B]	< 2 ng/mL	0.004 µg/mL (≈ 0.00466 µM)																			A. baumannii MIC, WT (A. baumannii; Table 4, RPMI + FCS): ≤2 ng/mL; MIC H. influenzae [1, 31]: 0.25 µg/mL (≈ 0.291 µM); MIC S. pneumoniae [6]: < 2 ng/mL; MIC S. pyogenes [7]: < 2 ng/mL; A. baumannii MIC, RpoB H535Q (A. baumannii RpoB H535Q): 0.004 mg/L; MIC M. smegmatis [8]: 0.29 µg/mL; MIC E. faecium [3, 32]: 0.5 µg/mL (≈ 0.582 µM); A. baumannii MIC, RpoB H535L (A. baumannii RpoB H535L): 0.5 mg/L; MIC S. epidermidis [4, 33]: < 2 ng/mL; MIC M. abscessus [9]: 8 µg/mL; MIC M. tuberculosis [10]: 0.01 µg/mL (≈ 0.0116 µM); A. baumannii MIC, RpoB H535C (A. baumannii RpoB H535C): 0.008 mg/L; MIC E. faecalis [5, 34]: 1 µg/mL (≈ 1.16 µM)
CO[C@H]1/C=C/O[C@@]2(C)Oc3c(C)c(O)c4c(c3C2=O)C2=NC3(NC2=C(NC(=O)/C(C)=C\C=C\[C@H](C)[C@H](O)[C@@H](C)[C@@H](O)[C@@H](C)[C@H](OC(C)=O)[C@@H]1C)C4=O)C1CN(C)CC3CN(C)C1 (stereo partly shown) [Compound 18]	8 ng/mL (≈ 0.0093 µM)	0.016 µg/mL (≈ 0.0186 µM)																			A. baumannii MIC, WT (A. baumannii; Table 4, RPMI + FCS): 8 ng/mL; MIC H. influenzae [1, 31]: 0.125 µg/mL (≈ 0.145 µM); MIC S. pneumoniae [6]: < 2 ng/mL; MIC S. pyogenes [7]: < 2 ng/mL; A. baumannii MIC, RpoB H535Q (A. baumannii RpoB H535Q): 0.03 mg/L; MIC M. smegmatis [8]: 1.11 µg/mL; MIC E. faecium [3, 32]: 0.125 µg/mL (≈ 0.145 µM); A. baumannii MIC, RpoB H535L (A. baumannii RpoB H535L): 4 mg/L; MIC S. epidermidis [4, 33]: < 2 ng/mL; MIC M. abscessus [9]: 32 µg/mL; MIC M. tuberculosis [10]: 0.01 µg/mL (≈ 0.0116 µM); A. baumannii MIC, RpoB H535C (A. baumannii RpoB H535C): 0.25 mg/L; MIC E. faecalis [5, 34]: 2 µg/mL (≈ 2.33 µM)
CO[C@H]1/C=C/O[C@@]2(C)Oc3c(C)c(O)c4c(c3C2=O)C2=NC3(CCN(CC(C)C)CC3)NC2=C(NC(=O)/C(C)=C\C=C\[C@H](C)[C@H](O)[C@@H](C)[C@@H](O)[C@@H](C)[C@H](OC(C)=O)[C@@H]1C)C4=O [Rifabutin, reference compound]			0.004 µg/mL	1 µg/mL	32 µg/mL	16 µg/mL	0.004 µg/mL	0.03 µg/mL	> 32 µg/mL	16 µg/mL	> 32 µg/mL	0.06 µg/mL	0.008 µg/mL	> 32 µg/mL	> 32 µg/mL	> 32 µg/mL	0.03 µg/mL	0.06 µg/mL	0.016 µg/mL	0.25 µg/mL	MIC (A. baumannii; 20 h, Table 4, RPMI + FCS, read-out: A. baumannii MIC, WT): ≤ 2 ng/mL; MIC (A. baumannii; read-out: MIC A. baumannii, RPMI medium supplemented with 10% FCS, 35° C. 20 hours): < 2 ng/mL; MIC (S. aureus; Staphylococcus aureus, read-out: MIC S. aureus): 0.016 µg/mL (≈ 0.0189 µM); MIC ([1]; ATCC49247, strain ATCC 49247, Hemophilus test medium broth, read-out: MIC H. influenzae): 0.5 µg/mL (≈ 0.59 µM); MIC ([3]; NCTC12204, strain NCTC 12204, cation adjusted Mueller Hinton broth, read-out: MIC E. faecium): 0.125 µg/mL (≈ 0.148 µM); MIC ([4]; ATCC12228, strain ATCC 12228, cation adjusted Mueller Hinton broth, read-out: MIC S. epidermidis): 4 ng/mL (≈ 0.00472 µM); MIC (A. baumannii RpoB H535C; [30]): > 32 µg/mL; MIC ([5]; ATCC51575, strain ATCC 51575, cation adjusted Mueller Hinton broth, read-out: MIC E. faecalis): 4 µg/mL (≈ 4.72 µM)

Source: US20250101039A1, “RIFAMYCIN DERIVATIVES FOR THE TREATMENT OF DISEASES” (priority 2022, published 2025)
